The target in assay [1] is T1, SARS-CoV-2 PLpro (nsp3 1564–1878) (Severe acute respiratory syndrome coronavirus 2, UniProt P0DTD1). The assay is described as follows: biochemical. Details: FRET-quenched peptide (Pro3) cleavage by PLpro, 10 min pre-incubation, slope over 20 min, normalised to no-compound control. The note with it: low concentration screen, read-out: % of control remaining.
For assay [2], the target named is T1, SARS-CoV-2 PLpro (nsp3 1564–1878). The assay is described as follows: biochemical. Also on record: FRET-quenched peptide (Pro3) cleavage by PLpro, 10 min pre-incubation, slope over 20 min, normalised to no-compound control. The note with it: high concentration screen, read-out: % of control remaining.

Molecules are shown by their SMILES. Structures can show the parent of a compound that is named as a salt. Where two headings read alike, the source gives them in different places.

Turning to `Cc1ccc(-c2n[nH]c3c2C(c2cccc(O)c2)N(c2ccc(C(=O)O)cc2)C3=O)cc1` (stereo not shown) [CID 16020046], the remaining activity at 1.25 µM in assay [1] (Well no.=7821) was 96.2%. For the same compound, in assay [2] (Well no.=7821), the remaining activity at 3.75 µM came out at 102%.

`Cc1ccc2c(c1)C1(CCN(CCc3nc(-c4ccccc4)oc3C)CC1)OC(=O)N2` [RS 504393]: the remaining activity at 1.25 µM in assay [1] (Well no.=8391) was determined as 99.2%. Moreover, the remaining activity at 3.75 µM in assay [2] (Well no.=8391) was found to be 95.2%.

`FC(F)(F)c1ccc(CNc2ccc(Cc3c[nH]c4ncccc34)cn2)cc1` [5-((1H-pyrrolo[2,3-b]pyridin-3-yl)methyl)-N-(4-(trifluoromethyl)benzyl)pyridin-2-amine]: in assay [1] (Well no.=6012), the remaining activity at 1.25 µM was found to be 104%. The remaining activity at 3.75 µM in assay [2] (Well no.=6012) is 102%.

In the case of `COc1cc2nc(N3CCN(C(=O)C4CCCO4)CC3)nc(N)c2cc1OC` (stereo not shown) [Terazosin (hydrochloride dihydrate)], the remaining activity at 1.25 µM in assay [1] (Well no.=7519) was 98.6%. The remaining activity at 3.75 µM in assay [2] (Well no.=7519) was 84.5%.

For `O=C1c2ccccc2C(=O)c2c1ccc(O)c2O` [Alizarin], the remaining activity at 1.25 µM in assay [1] (Well no.=5284) was determined as 94.6%. In addition, the remaining activity at 3.75 µM in assay [2] (Well no.=5284) amounted to 95.1%.

In the case of `N#C/C(=C\c1c[nH]c2ccccc12)C(=O)c1ccc(O)c(O)c1` [Tyrphostin AG 808], in assay [1] (Well no.=1433), the remaining activity at 1.25 µM was determined as 98.9%. For the same compound, the remaining activity at 3.75 µM in assay [2] (Well no.=1433) was found to be 97.2%.

Take `CN1C(=O)CC[C@H]1c1cccnc1` [Cotinine]: the remaining activity at 1.25 µM in assay [1] (Well no.=7163) was determined as 97.7%. The remaining activity at 3.75 µM in assay [2] (Well no.=7163) was 96.3%.

In the case of `N=C(N)SCCc1ccc(OCc2ccc([N+](=O)[O-])cc2)cc1` [KB-R7943], the remaining activity at 1.25 µM in assay [1] (Well no.=5823) is 105%. For the same compound, the remaining activity at 3.75 µM in assay [2] (Well no.=5823) came to 106%.

For the compound `N[C@H](C(=O)O)c1cccc(O)c1` (racemic), the remaining activity at 1.25 µM in assay [1] (Well no.=476) came out at 101%. Besides, in assay [2] (Well no.=476), the remaining activity at 3.75 µM is 97%.

Take `CC1(C)NC(=O)N(c2ccc([N+](=O)[O-])c(C(F)(F)F)c2)C1=O` [Nilutamide]: the remaining activity at 1.25 µM in assay [1] (Well no.=1147) was 100%. Besides, the remaining activity at 3.75 µM in assay [2] (Well no.=1147) stood at 101%.

As to `O=C(O)CNC(=O)C(=O)O` [N-Oxalylglycine], the remaining activity at 1.25 µM in assay [1] (Well no.=5387) worked out at 97.9%. Moreover, the remaining activity at 3.75 µM in assay [2] (Well no.=5387) came to 92.4%.

For the compound `N=C(N)N/N=C/c1c(Cl)cccc1Cl` [Guanabenz (Acetate)], in assay [1] (Well no.=6652), the remaining activity at 1.25 µM was 94.5%. Also, the remaining activity at 3.75 µM in assay [2] (Well no.=6652) turned out to be 100%.

Take `CC(=O)OCC(=O)[C@@]12N=C(C)O[C@@H]1C[C@H]1[C@@H]3CCC4=CC(=O)C=C[C@]4(C)[C@H]3[C@@H](O)C[C@@]12C` [Deflazacort]: the values for the remaining activity at 1.25 µM in assay [1] (Well no.=5566) and in assay [1] (Well no.=7613) were 103% and 102%, respectively. The remaining activity at 3.75 µM amounted to 104% in assay [2] (Well no.=5566) and 97.5% in assay [2] (Well no.=7613).

Consider `O=C(O)/C=C/C(=O)O` [3-Aminopropionitrile fumarate], for which the remaining activity at 1.25 µM in assay [1] (Well no.=251) was 92.7%. Besides, in assay [2] (Well no.=251), the remaining activity at 3.75 µM came out at 93.7%.

`CCCCCCCCCCCCCCCCOP(=O)([O-])OCC[N+](C)(C)C` [Miltefosine]: in assay [1] (Well no.=1767), the remaining activity at 1.25 µM was 101%. Further, the remaining activity at 3.75 µM in assay [2] (Well no.=1767) is 100%.

On to `CCC(C)(O)C(=O)O` (stereo not shown) [2-Hydroxy-2-methylbutanoic acid], for which, in assay [1] (Well no.=6357), the remaining activity at 1.25 µM was 96.5%. Moreover, the remaining activity at 3.75 µM in assay [2] (Well no.=6357) worked out at 93.4%.

As to `O=C1NC(c2cccc([N+](=O)[O-])c2)=CCN1c1ccccc1O` [Icilin], in assay [1] (Well no.=5682), the remaining activity at 1.25 µM worked out at 83.3%. In assay [2] (Well no.=5682), the remaining activity at 3.75 µM was found to be 83.5%.

`Cc1noc(-c2ccc(CSCCC(=O)O)cc2)c1NC(=O)OC(C)c1ccccc1Cl` (stereo not shown) [Ki16425]: the remaining activity at 1.25 µM in assay [1] (Well no.=7955) came out at 95.2%. For the same compound, the remaining activity at 3.75 µM in assay [2] (Well no.=7955) came out at 96.5%.

Regarding `C[C@]12CC[C@@H](O)C[C@@H]1CC[C@@H]1[C@@H]2CC[C@]2(C)[C@@H](C(=O)CO)CC[C@@H]12` [3-alpha,21-Dihydroxy-5-alpha-pregnan-20-one], in assay [1] (Well no.=856), the remaining activity at 1.25 µM came to 99.8%. The remaining activity at 3.75 µM in assay [2] (Well no.=856) was found to be 104%.

As for `Nc1nc(=O)c2c([nH]1)NCC(CNc1ccc(C(=O)N[C@@H](CCC(=O)O)C(=O)O)cc1)N2C=O` (stereo partly shown) [Leucovorin Calcium], in assay [1] (Well no.=4757), the remaining activity at 1.25 µM amounted to 103%. Further, the remaining activity at 3.75 µM in assay [2] (Well no.=4757) was found to be 107%.

Turning to `CO[C@H]1C[C@@H]2CC[C@@H](C)[C@@](O)(O2)C(=O)C(=O)N2CCCC[C@H]2C(=O)O[C@H]([C@H](C)C[C@@H]2CC[C@@H](OC(=O)C(C)(CO)CO)[C@H](OC)C2)CC(=O)[C@H](C)/C=C(\C)[C@@H](O)[C@@H](OC)C(=O)[C@H](C)C[C@H](C)/C=C/C=C/C=C/1C` [Temsirolimus], in assay [1] (Well no.=8412), the remaining activity at 1.25 µM turned out to be 95.2%. Moreover, the remaining activity at 3.75 µM in assay [2] (Well no.=8412) was 91.8%.

As to `CC(C)=CCC/C(C)=C/COc1ccc2ccc(=O)oc2c1` [Auraptene], in assay [1] (Well no.=3511), the remaining activity at 1.25 µM was 101%. The remaining activity at 3.75 µM in assay [2] (Well no.=3511) turned out to be 104%.

Turning to `O=[N+]([O-])c1cccc2c(Br)[nH]nc12` [3-Bromo-7-nitroindazole], the remaining activity at 1.25 µM in assay [1] (Well no.=27) was determined as 98.5%. Further, the remaining activity at 3.75 µM in assay [2] (Well no.=27) was determined as 96.1%.

Turning to `COc1ccc(-c2coc3cc(O)cc(O)c3c2=O)cc1` [Biochanin A], the remaining activity at 1.25 µM in assay [1] (Well no.=3519) was 103%. Besides, the remaining activity at 3.75 µM in assay [2] (Well no.=3519) amounted to 101%.

For the compound `CN1[C@@H]2CC[C@H]1C[C@@H](OC(=O)[C@H](CO)c1ccccc1)C2` [L-Hyoscyamine], the remaining activity at 1.25 µM in assay [1] (Well no.=424) came to 99.2%; in assay [1] (Well no.=6801) it was 103%. Also, the remaining activity at 3.75 µM in assay [2] (Well no.=424) turned out to be 96.8%; in assay [2] (Well no.=6801) it was 99.4%.

On to `CC[C@@H]1C(=O)OC[C@@H]1Cc1cncn1C` [Pilocarpine (Hydrochloride)], for which the remaining activity at 1.25 µM in assay [1] (Well no.=7627) came out at 99.7%. Also, the remaining activity at 3.75 µM in assay [2] (Well no.=7627) amounted to 96.7%.

For the compound `CC(CN1c2ccccc2Sc2ccccc21)N(C)C` (stereo not shown) [Promethazine.HCl], the remaining activity at 1.25 µM in assay [1] (Well no.=1640) stood at 96.2%. In assay [2] (Well no.=1640), the remaining activity at 3.75 µM stood at 97.2%.

On to `COc1cccc(-c2cc(=O)c3ccccc3o2)c1N` [PD 98059 - 2-(2-Amino-3-methoxyphenyl)-4H-1-benzopyran-4-one], for which, in assay [1] (Well no.=2348), the remaining activity at 1.25 µM turned out to be 98.4%. Besides, the remaining activity at 3.75 µM in assay [2] (Well no.=2348) was found to be 96.8%.

`Cc1cnc(NC(=O)c2cc(S(=O)(=O)N(C)C)ccc2N2CCCC2)s1` [NGI-1]: the remaining activity at 1.25 µM in assay [1] (Well no.=7684) was 103%. The remaining activity at 3.75 µM in assay [2] (Well no.=7684) is 103%.

Take `CCCCCCCCCCC/C=C\C/C=C\CCCC(=O)O` [Eicosa-5,8-dienoic acid (20:2 n-12)]: in assay [1] (Well no.=4309), the remaining activity at 1.25 µM amounted to 102%. For the same compound, in assay [2] (Well no.=4309), the remaining activity at 3.75 µM amounted to 106%.

Turning to `OCCOCCN1CCN(Cc2cccc(Oc3ccccc3)c2)CC1` [ZK756326 (dihydrochloride)], the figures for the remaining activity at 1.25 µM in assay [1] (Well no.=6178) and in assay [1] (Well no.=8117) were 99.6% and 104%, respectively. Further, the remaining activity at 3.75 µM in assay [2] (Well no.=6178) was 101%.

The values above are taken from paper PMC8286840, “Identifying SARS-CoV-2 antiviral compounds by screening for small molecule inhibitors of Nsp3 papain-like protease” (Biochemical Journal, 2021).
